Assay [1] concerns the target T1, Cloned human M1 receptor (CHRM1) (Homo sapiens, UniProt P11229).
T1 construct: expressed in transfected cells; host or cells: HEK293
T1 sequence (P11229 1-460): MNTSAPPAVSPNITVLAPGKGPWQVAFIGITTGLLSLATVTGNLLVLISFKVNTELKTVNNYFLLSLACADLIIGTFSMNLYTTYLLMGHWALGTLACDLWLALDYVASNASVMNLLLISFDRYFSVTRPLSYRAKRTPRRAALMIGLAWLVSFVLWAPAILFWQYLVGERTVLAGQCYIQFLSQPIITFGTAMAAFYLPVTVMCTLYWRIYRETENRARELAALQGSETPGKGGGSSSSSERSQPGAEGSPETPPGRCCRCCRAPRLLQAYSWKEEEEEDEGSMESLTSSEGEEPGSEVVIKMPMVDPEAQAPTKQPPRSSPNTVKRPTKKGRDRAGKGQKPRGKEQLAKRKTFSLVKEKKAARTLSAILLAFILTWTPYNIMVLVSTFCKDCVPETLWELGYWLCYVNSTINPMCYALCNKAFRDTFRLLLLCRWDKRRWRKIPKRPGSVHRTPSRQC
Put plainly: CHRM1 Ca++ Flux Assay (HEK293 M1 cells, agonist mode). The assay is classed as cell-based. As to conditions: for Emax: read-out: M1 FDSS PA %; for EC50: geometric mean if tested more than once, read-out: M1 FDSS EC50. How it is done:
(§1) The above examples were characterized by measuring the intracellular mobilization of Ca^++ ions caused by signaling events mediated by the receptor. The Intra-cellular Calcium flux levels were captured by the highly sensitive Ca^++ indicator, Calcium Assay Kit (BD Biosciences; Catalog Number 640178. The fluorescent activity from all receptors were monitored by the fluorescent imager, FDSS 7000EX (Hamamatsu) over a span of 3 minutes. The change in Calcium flux was readily captured upon activation with the muscarinic orthosteric agonist, Carbachol.
Cloned human M1 receptor (CHRM1) was stably expressed in HEK293 cells and were grown and maintained in a monolayer culture with DMEM/High Glucose (Life Technologies) supplemented with 10% Fetal Bovine Serum, 1×Pen-Strep, and 0.5 mg/mL Geneticin in a humidified atmosphere (5% CO2) at 37° C. The cultures were grown to 90% confluency in T150 flasks (Corning) and washed with 1×DPBS and lifted with 0.05% Trypsin (Life Technologies). The cells were then spun (1K rpm, 3 minutes) and frozen using Recovery Cell Culture Freezing Media (Gibco Technologies). Cells were stored in liquid nitrogen and thawed a day before the assay.
Prior to the day of the assay, stable HEK293 M1 cells were thawed and plated on 384 well black walled clear bottom TC treated plates (Greiner Cat #781091) at 25K cells/well with DMEM/High Glucose supplemented with 10% FBS (Hyclone) Pen-Strep (Life Technologies) and kept overnight in a humidified atmosphere (5% CO2) at 37° C. The following day, cells were loaded with 20 uL Ca^++ dye (BD Biosciences) using Loading Buffer (HBSS +Ca/+Mg, 20 mM HEPES) and placed back in cell incubator for a minimum of 1 hour. The dye was replaced with 45 μL Assay Buffer (HBSS −Ca/−Mg, 20 mM HEPES) and kept at room temperature prior to running on cell imager. Compounds were prepared in Assay Buffer and 5 uL was added to the cells. The FDSS 7000EX (Hamamatsu) was used to acquire Ca++ traces for 3 minutes from cells treated with 11 point dose in triplicate in order to generate dose response curves in agonist mode. All compounds were serially diluted in DMSO then prepared in Assay Buffer for Ca^++ flux studies. The dose response curves were generated from the average of triplicate wells obtained from each data point and used a non-linear regression of four parameter dose response algorithm. The Percent Activity (PA) was measured to EC100 of Carbachol.
(§2) If an Example was tested more than once in an assay, then the values below represent the geometric mean of the results from each independent experiment.

The target in assay [2] is T2, human cloned CHRM5 receptor (Homo sapiens, UniProt P08912).
T2 construct: expressed in transfected cells; host or cells: CHO (M5_CHO)
T2 sequence (P08912 1-532): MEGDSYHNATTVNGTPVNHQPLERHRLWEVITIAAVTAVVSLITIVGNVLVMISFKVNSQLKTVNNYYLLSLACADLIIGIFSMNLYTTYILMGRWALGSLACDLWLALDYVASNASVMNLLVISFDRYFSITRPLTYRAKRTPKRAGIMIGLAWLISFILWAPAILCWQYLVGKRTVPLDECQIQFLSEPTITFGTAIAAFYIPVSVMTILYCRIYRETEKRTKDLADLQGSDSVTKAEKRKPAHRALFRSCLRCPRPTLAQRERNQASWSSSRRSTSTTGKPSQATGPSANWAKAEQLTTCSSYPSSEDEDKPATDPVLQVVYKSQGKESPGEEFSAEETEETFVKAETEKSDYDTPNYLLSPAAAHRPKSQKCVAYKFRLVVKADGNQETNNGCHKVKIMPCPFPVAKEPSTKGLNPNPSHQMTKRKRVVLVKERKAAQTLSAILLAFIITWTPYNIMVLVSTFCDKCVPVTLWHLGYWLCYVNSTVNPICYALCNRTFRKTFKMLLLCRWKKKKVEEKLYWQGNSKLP
Put plainly: CHRM5 Ca++ Flux Assay (M5_CHO cells, agonist mode). As to conditions: for Emax: read-out: M5 FDSS PA %; for EC50: agonist mode, geometric mean if tested more than once, read-out: M5 FDSS EC50. The assay is classed as cell-based. How it is done:
as §1
CHO-K1 cells stably expressing the human cloned CHRM3 receptor (M3_CHO cells) were grown and maintained in a monolayer culture with F12/HAM (Life Technologies) supplemented with 10% Fetal Bovine Serum, IX Pen-Strep, and 0.4 mg/mL Geneticin in a humidified atmosphere (5% CO2) at 37° C. The cultures were grown to 80-90% confluency in T150 flasks (Corning) and washed with 1×DPBS and lifted with 0.05% Trypsin (Life Technologies). The cells were then spun (1K rpm, 3 minutes) and frozen using Recovery Cell Culture Freezing Media (Gibco Technologies). Cells were stored in liquid nitrogen and thawed a day before the assay. A similar procedure was used for cells stably expressing the human cloned CHRM5 receptor (M5_CHO).
Prior to the day of the assay, stable M3_CHO or M5_CHO cells were thawed and plated on Greiner 384 well black TC treated plates at 12K cells/well in F12/DMEM supplemented with 10% FBS (Hyclone) and kept overnight in a humidified atmosphere (5% CO2) at 37° C. The next day, cells were loaded with Ca^++ dye (BD Biosciences) using Loading Buffer (HBSS +Ca/+Mg, 20 mM HEPES, 2.5 mM Probenecid) and placed back in cell incubator for a minimum of 1 hour. After incubation, the dye was replaced with Assay Buffer (HBSS −Ca/−Mg, 20 mM HEPES, 2.5 mM Probenecid) and kept at room temperature in the dark before running on cell imager. The FDSS 7000EX (Hamamatsu) was used to acquire Ca^+− traces from cells treated with 11 point dose response of compounds in triplicate in order to generate dose response curves in agonist mode. All compounds were serially diluted in DMSO then prepared in Assay Buffer for Ca^++ flux studies. The dose response curves were generated from the average of triplicate wells obtained from each data point and used a non-linear regression of four parameter dose response algorithm. The Percent Activity (PA) was measured to EC100 of Carbachol.
as §2

The mark [3] stands for this setting: Percent Activity (PA) measured to EC100 of Carbachol.

As for `Fc1ccc(OC[C@@H]2CCOC2)c(C2CCN([C@@H]3COC4(C3)CN(c3nnco3)C4)CC2)c1` [Example 1B, (S)-7-(4-(5-fluoro-2-(((R)-tetrahydrofuran-3-yl)methoxy)phenyl)piperidin-1-yl)-2-(1,3,4-oxadiazol-2-yl)-5-oxa-2-azaspiro[3.4]octane], the Emax in assay [1] (Percent Activity (PA)) amounted to 72%; in assay [2] (setting [3]), 0%. Besides, the concentration for a half-maximal effect (EC50) in assay [1] is 598 nM; in assay [2], > 25000 nM.

With `c1ccc(C2CCN([C@@H]3COC4(C3)CN(c3ncco3)C4)CC2)c(O[C@H]2CCOC2)c1` [Example 4H, (S)-2-(oxazol-2-yl)-7-(4-(2-(((S)-tetrahydrofuran-3-yl)oxy)phenyl)piperidin-1-yl)-5-oxa-2-azaspiro[3.4]octane], the results for the Emax in assay [1] (Percent Activity (PA)) and in assay [2] (setting [3]) were 63% and 0%, respectively. Also, the EC50 was 745 nM in assay [1] and > 25000 nM in assay [2].

Consider `Fc1ccc(OC[C@H]2CCO2)c(C2CCN([C@@H]3COC4(C3)CN(c3nncs3)C4)CC2)c1.O=C(O)C(F)(F)F` (single isomer, unassigned) [Example 2D, (S)-7-(4-(5-fluoro-2-(((R)-oxetan-2-yl)methoxy)phenyl)piperidin-1-yl)-2-(1,3,4-thiadiazol-2-yl)-5-oxa-2-azaspiro[3.4]octane trifluoroacetate or (S)-7-(4-(5-fluoro-2-(((S)-oxetan-2-yl)methoxy)phenyl)piperidin-1-yl)-2-(1,3,4-thiadiazol-2-yl)-5-oxa-2-azaspiro[3.4]octane trifluoroacetate], for which the “M1 FDSS PA %” value in assay [1] (Percent Activity (PA)) stood at 72%. The EC50 in assay [1] is 289 nM; in assay [2], > 25000 nM. Further, the “M5 FDSS PA %” value in assay [2] (setting [3]) stood at 0%.

Regarding `c1ccc(C2CCN([C@@H]3COC4(C3)CN(c3ncco3)C4)CC2)c(-c2cncnc2)c1` [Example 4R, (S)-2-(oxazol-2-yl)-7-(4-(2-(pyrimidin-5-yl)phenyl)piperidin-1-yl)-5-oxa-2-azaspiro[3.4]octane], the Emax in assay [1] (Percent Activity (PA)) was 95%; in assay [2] (setting [3]), 0%. Also, the half-maximal effective concentration (EC50) in assay [1] was 128 nM; in assay [2], > 25000 nM.

With `Fc1ccc(C2CCN([C@@H]3COC4(C3)CN(c3ncco3)C4)CC2)c(OC2COC2)c1` [Example 4S, (S)-7-(4-(4-fluoro-2-(oxetan-3-yloxy)phenyl)piperidin-1-yl)-2-(oxazol-2-yl)-5-oxa-2-azaspiro[3.4]octane], the Emax stood at 89% in assay [1] (Percent Activity (PA)) and 0% in assay [2] (setting [3]). The EC50 in assay [1] was 624 nM; in assay [2], > 25000 nM.

For the molecule `Fc1ccc(OC[C@H]2COCCO2)c(C2CCN([C@@H]3COC4(C3)CN(c3nnco3)C4)CC2)c1` [Example 1C], the Emax in assay [1] (Percent Activity (PA)) stood at 72%; in assay [2] (setting [3]), 0%. Further, the EC50 in assay [1] was 576 nM; in assay [2], > 25000 nM.

On to `CC(C)(O)CCOc1ccc(F)cc1C1CCN([C@@H]2COC3(C2)CN(c2nncs2)C3)CC1` [Example 5P, (S)-4-(2-(1-(2-(1,3,4-thiadiazol-2-yl)-5-oxa-2-azaspiro[3.4]octan-7-yl)piperidin-4-yl)-4-fluorophenoxy)-2-methylbutan-2-ol], for which the Emax in assay [1] (Percent Activity (PA)) was 91%; in assay [2] (setting [3]), 0%. Besides, the results for the EC50 in assay [1] and in assay [2] were 413 nM and > 25000 nM, respectively.

With `Fc1ccc(OC[C@H]2COCCO2)c(C2CCN([C@@H]3COC4(C3)CN(c3ncco3)C4)CC2)c1` [Example 4B, (S)-7-(4-(2-(((R)-1,4-dioxan-2-yl)methoxy)-5-fluorophenyl)piperidin-1-yl)-2-(oxazol-2-yl)-5-oxa-2-azaspiro[3.4]octane], the Emax was 117% in assay [1] (Percent Activity (PA)) and 0% in assay [2] (setting [3]). In addition, the results for the EC50 in assay [1] and in assay [2] were 424 nM and > 25000 nM, respectively.

`Fc1ccc(C2CCOCC2)c(C2CCN([C@@H]3COC4(C3)CN(c3ncco3)C4)CC2)c1` [Example 4W, (S)-7-(4-(5-fluoro-2-(tetrahydro-2H-pyran-4-yl)phenyl)piperidin-1-yl)-2-(oxazol-2-yl)-5-oxa-2-azaspiro[3.4]octane]: the Emax in assay [1] (Percent Activity (PA)) was 74%; in assay [2] (setting [3]), 0%. The EC50 is 1090 nM in assay [1] and > 25000 nM in assay [2].

Turning to `COCCOc1ccc(F)cc1C1CCN([C@@H]2COC3(C2)CN(c2ncns2)C3)CC1` [Example 5D, (S)-7-(4-(5-fluoro-2-(2-methoxyethoxy)phenyl)piperidin-1-yl)-2-(1,2,4-thiadiazol-5-yl)-5-oxa-2-azaspiro[3.4]octane], the Emax in assay [1] (Percent Activity (PA)) came out at 60%; in assay [2] (setting [3]) it was 0%. For the same molecule, the EC50 in assay [1] was 1150 nM; in assay [2] it was > 25000 nM.

For the molecule `COc1ccccc1C1CCN([C@@H]2COC3(C2)CN(c2ncco2)C3)CC1` [Example 4N, (S)-7-(4-(2-methoxyphenyl)piperidin-1-yl)-2-(oxazol-2-yl)-5-oxa-2-azaspiro[3.4]octane], the Emax was determined as 64% in assay [1] (Percent Activity (PA)) and 0% in assay [2] (setting [3]). Besides, the EC50 is 384 nM in assay [1] and > 25000 nM in assay [2].

For `c1ccc(C2CCN([C@@H]3COC4(C3)CN(c3nnco3)C4)CC2)c(C2CCOCC2)c1` [Example 3C, (S)-2-(1,3,4-oxadiazol-2-yl)-7-(4-(2-(tetrahydro-2H-pyran-4-yl)phenyl)piperidin-1-yl)-5-oxa-2-azaspiro[3.4]octane], the Emax was 78% in assay [1] (Percent Activity (PA)) and 0% in assay [2] (setting [3]). The values for the EC50 in assay [1] and in assay [2] were 3890 nM and > 25000 nM, respectively.

These data come from patent US11485742B2, “2-azaspiro[3.4]octane derivatives as M4 agonists” (NOVARTIS AG, priority 2019, dated 2022).
